Results from article PMC5988656, “Phase I studies of AZD1208, a proviral integration Moloney virus kinase inhibitor in solid and haematological cancers” (British Journal of Cancer, 2018).

Assay: Solid tumour dose-escalation study: pharmacokinetics (plasma, urine)
Format: in vivo, human
Method: The schedules for collection of blood and urine samples for PK analyses in each cohort in both studies are described in Supplementary Table 1. When necessary for clinical response assessment in the AML study, a bone marrow sample for PK analysis was collected at Cycle 1, Day 28.
The concentration of AZD1208 in plasma and urine was determined by Covance, on behalf of Clinical Bioanalysis Alliance at AstraZeneca R&D, using a bioanalytical method. A volume of 0.05 ml of K2EDTA human plasma sample was extracted by liquid–liquid extraction using 0.7 ml of methyl tert-butyl ether. Approximately 100 µl of the supernatant was transferred, evaporated to dryness and reconstituted with 350 µl of 1:1 methanol:water, and a 5 µl injection was made to the high-performance liquid chromatography (HPLC) column. HPLC separations were performed on a Phenomenex LUNA C18 (50 × 2 mm, 5 µm) column using a mobile phase of 0.1% formic acid in water (A) and 0.1% formic acid in acetonitrile (B) at a flow rate of 0.6 ml/min and a column temperature of 40 °C. AZD1208-D5 was used as the internal standard. Detection was performed in a Sciex API4000 mass spectrometer, in a positive electrospray ionisation mode, using multiple reaction monitoring detection (AZD1208: 380.0–>248.1; AZD1208-D5: 385.0–>253.1).

Which “Plasma concentration of AZD1208, Gmean” value (Cycle 0, Day 1, 1 h post-dose, 120 mg) does the source give for `N[C@@H]1CCCN(c2c(/C=C3\SC(=O)NC3=O)cccc2-c2ccccc2)C1` [AZD1208] here?
Its value is “n=3 156.2 ng ml”.

What about the “Plasma concentration of AZD1208, Gmean” value (Cycle 0, Day 1, 1 h post-dose, 240 mg) of the same compound?
Its value is “n=7 668.4 ng ml”.

And the “Plasma concentration of AZD1208, Gmean” value (Cycle 0, Day 1, 1 h post-dose, 360 mg)?
The value was “n=5 1424 ng ml”.

What about the “Plasma concentration of AZD1208, Gmean” value (Cycle 0, Day 1, 1 h post-dose, 540 mg) of the same compound?
The value was “n=7 1053 ng ml”.

What about the “Plasma concentration of AZD1208, Gmean” value (Cycle 0, Day 1, 1 h post-dose, 700 mg) of the same compound?
The value was “n=6 691.7 ng ml”.

And the “Plasma concentration of AZD1208, Gmean” value (Cycle 0, Day 1, 1 h post-dose, 800 mg)?
Its value is “n=6 925.6 ng ml”.

What about the “Plasma concentration of AZD1208, Gmean” value (Cycle 0, Day 1, 1.5 h post-dose, 120 mg) of the same compound?
The value was “n=3 696.5 ng ml”.

What about the “Plasma concentration of AZD1208, Gmean” value (Cycle 0, Day 1, 1.5 h post-dose, 240 mg) of the same compound?
Its value is “n=7 1317 ng ml”.

And the “Plasma concentration of AZD1208, Gmean” value (Cycle 0, Day 1, 1.5 h post-dose, 360 mg)?
Its value is “n=5 2509 ng ml”.

And the “Plasma concentration of AZD1208, Gmean” value (Cycle 0, Day 1, 1.5 h post-dose, 540 mg)?
The value was “n=7 2747 ng ml”.

And the “Plasma concentration of AZD1208, Gmean” value (Cycle 0, Day 1, 2 h post-dose, 120 mg)?
The value was “n=3 1064 ng ml”.

And the “Plasma concentration of AZD1208, Gmean” value (Cycle 0, Day 1, 2 h post-dose, 240 mg)?
The value was “n=7 1906 ng ml”.

What about the “Plasma concentration of AZD1208, Gmean” value (Cycle 0, Day 1, 2 h post-dose, 360 mg) of the same compound?
Its value is “n=6 3412 ng ml”.

What about the “Plasma concentration of AZD1208, Gmean” value (Cycle 0, Day 1, 2 h post-dose, 540 mg) of the same compound?
The value was “n=7 4049 ng ml”.

What about the “Plasma concentration of AZD1208, Gmean” value (Cycle 0, Day 1, 2 h post-dose, 700 mg) of the same compound?
The value was “n=6 3514 ng ml”.

What about the “Plasma concentration of AZD1208, Gmean” value (Cycle 0, Day 1, 2 h post-dose, 800 mg) of the same compound?
The value was “n=6 2929 ng ml”.

What about the “Plasma concentration of AZD1208, Gmean” value (Cycle 0, Day 1, 4 h post-dose, 120 mg) of the same compound?
The value was “n=3 720.6 ng ml”.

And the “Plasma concentration of AZD1208, Gmean” value (Cycle 0, Day 1, 4 h post-dose, 240 mg)?
The value was “n=6 1531 ng ml”.

What about the “Plasma concentration of AZD1208, Gmean” value (Cycle 0, Day 1, 4 h post-dose, 360 mg) of the same compound?
Its value is “n=6 3157 ng ml”.

And the “Plasma concentration of AZD1208, Gmean” value (Cycle 0, Day 1, 4 h post-dose, 540 mg)?
The value was “n=7 3160 ng ml”.

What about the “Plasma concentration of AZD1208, Gmean” value (Cycle 0, Day 1, 4 h post-dose, 700 mg) of the same compound?
The value was “n=6 4581 ng ml”.

And the “Plasma concentration of AZD1208, Gmean” value (Cycle 0, Day 1, 4 h post-dose, 800 mg)?
Its value is “n=6 3844 ng ml”.

And the “Plasma concentration of AZD1208, Gmean” value (Cycle 0, Day 1, 6 h post-dose, 120 mg)?
The value was “n=3 681 ng ml”.

And the “Plasma concentration of AZD1208, Gmean” value (Cycle 0, Day 1, 6 h post-dose, 240 mg)?
Its value is “n=7 1408 ng ml”.

And the “Plasma concentration of AZD1208, Gmean” value (Cycle 0, Day 1, 6 h post-dose, 360 mg)?
The value was “n=6 2501 ng ml”.

And the “Plasma concentration of AZD1208, Gmean” value (Cycle 0, Day 1, 6 h post-dose, 540 mg)?
Its value is “n=7 3190 ng ml”.

What about the “Plasma concentration of AZD1208, Gmean” value (Cycle 0, Day 1, 6 h post-dose, 700 mg) of the same compound?
Its value is “n=6 5091 ng ml”.

What about the “Plasma concentration of AZD1208, Gmean” value (Cycle 0, Day 1, 6 h post-dose, 800 mg) of the same compound?
Its value is “n=6 2677 ng ml”.

What about the “Plasma concentration of AZD1208, Gmean” value (Cycle 0, Day 1, 8 h post-dose, 120 mg) of the same compound?
The value was “n=3 597.8 ng ml”.

And the “Plasma concentration of AZD1208, Gmean” value (Cycle 0, Day 1, 8 h post-dose, 240 mg)?
Its value is “n=7 1456 ng ml”.

And the “Plasma concentration of AZD1208, Gmean” value (Cycle 0, Day 1, 8 h post-dose, 360 mg)?
The value was “n=6 2196 ng ml”.

What about the “Plasma concentration of AZD1208, Gmean” value (Cycle 0, Day 1, 8 h post-dose, 540 mg) of the same compound?
The value was “n=7 2957 ng ml”.

What about the “Plasma concentration of AZD1208, Gmean” value (Cycle 0, Day 1, 8 h post-dose, 700 mg) of the same compound?
Its value is “n=6 4256 ng ml”.

And the “Plasma concentration of AZD1208, Gmean” value (Cycle 0, Day 1, 8 h post-dose, 800 mg)?
Its value is “n=6 3463 ng ml”.

And the “Plasma concentration of AZD1208, Gmean” value (Cycle 0, Day 1, 24 h post-dose, 120 mg)?
Its value is “n=3 459.4 ng ml”.

What about the “Plasma concentration of AZD1208, Gmean” value (Cycle 0, Day 1, 24 h post-dose, 240 mg) of the same compound?
The value was “n=7 1157 ng ml”.

And the “Plasma concentration of AZD1208, Gmean” value (Cycle 0, Day 1, 24 h post-dose, 360 mg)?
Its value is “n=6 1649 ng ml”.

And the “Plasma concentration of AZD1208, Gmean” value (Cycle 0, Day 1, 24 h post-dose, 540 mg)?
Its value is “n=7 2111 ng ml”.

What about the “Plasma concentration of AZD1208, Gmean” value (Cycle 0, Day 1, 24 h post-dose, 700 mg) of the same compound?
Its value is “n=6 2957 ng ml”.

What about the “Plasma concentration of AZD1208, Gmean” value (Cycle 0, Day 1, 24 h post-dose, 800 mg) of the same compound?
Its value is “n=6 2466 ng ml”.

And the “Plasma concentration of AZD1208, Gmean” value (Cycle 0, Day 1, 48 h post-dose, 120 mg)?
The value was “n=3 308.4 ng ml”.

And the “Plasma concentration of AZD1208, Gmean” value (Cycle 0, Day 1, 48 h post-dose, 240 mg)?
Its value is “n=7 773.2 ng ml”.

And the “Plasma concentration of AZD1208, Gmean” value (Cycle 0, Day 1, 48 h post-dose, 360 mg)?
Its value is “n=6 1361 ng ml”.

What about the “Plasma concentration of AZD1208, Gmean” value (Cycle 0, Day 1, 48 h post-dose, 540 mg) of the same compound?
The value was “n=7 1168 ng ml”.

And the “Plasma concentration of AZD1208, Gmean” value (Cycle 0, Day 1, 48 h post-dose, 700 mg)?
Its value is “n=6 1717 ng ml”.

What about the “Plasma concentration of AZD1208, Gmean” value (Cycle 0, Day 1, 48 h post-dose, 800 mg) of the same compound?
The value was “n=6 1377 ng ml”.

What about the “Plasma concentration of AZD1208, Gmean” value (Cycle 0, Day 1, 72 h post-dose, 120 mg) of the same compound?
Its value is “n=3 221.4 ng ml”.

What about the “Plasma concentration of AZD1208, Gmean” value (Cycle 0, Day 1, 72 h post-dose, 240 mg) of the same compound?
Its value is “n=7 501.1 ng ml”.

And the “Plasma concentration of AZD1208, Gmean” value (Cycle 0, Day 1, 72 h post-dose, 360 mg)?
The value was “n=6 912.2 ng ml”.

And the “Plasma concentration of AZD1208, Gmean” value (Cycle 0, Day 1, 72 h post-dose, 540 mg)?
Its value is “n=7 710.8 ng ml”.

What about the “Plasma concentration of AZD1208, Gmean” value (Cycle 0, Day 1, 72 h post-dose, 700 mg) of the same compound?
The value was “n=6 1141 ng ml”.

And the “Plasma concentration of AZD1208, Gmean” value (Cycle 0, Day 1, 72 h post-dose, 800 mg)?
The value was “n=6 798.7 ng ml”.

And the “Plasma concentration of AZD1208, Gmean” value (Cycle 1, Day 15, 0.25 h post-dose, 120 mg)?
The value was “n=3 963.7 ng ml”.

What about the “Plasma concentration of AZD1208, Gmean” value (Cycle 1, Day 15, 0.25 h post-dose, 240 mg) of the same compound?
Its value is “n=6 606.8 ng ml”.

What about the “Plasma concentration of AZD1208, Gmean” value (Cycle 1, Day 15, 0.25 h post-dose, 360 mg) of the same compound?
Its value is “n=2 562.8 ng ml”.
